Structures are written as SMILES. Several values for one entry are separate records, joined by “and”; a condition that tells them apart may be missing. Equal values may be shown once.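 1) Cells in 96-well plates. 2) Compound, 48 h, 5 concentrations. 3) Linear interpolation between surrounding doses. 4) Unreached endpoint = highest concentration. GI50 is the concentration that inhibits growth by half. TGI: total growth inhibition.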

Some test systems named below: ACHN renal; HOP-62 NSCLC; TK-10 renal; OVCAR-4 ovarian; U251 CNS; SK-MEL-28 melanoma; HL-60(TB) leukemia; M14 melanoma; SF-295 CNS; RXF 393 renal.
Common to all, as to test: DTP human tumour cell line panel, 48 h

Turning to `O=C1c2ccccc2C(=O)C2C1C1C(=O)c3ccccc3C(=O)C21` (stereo not given), the concentration for total growth inhibition (TGI) in the test with ACHN renal, in the test on HOP-62 NSCLC, with TK-10 renal, in the test with OVCAR-4 ovarian, with U251 CNS and in the test with SK-MEL-28 melanoma was over 100 µM throughout. The TGI in the test with HL-60(TB) leukemia, in the test on M14 melanoma, with SF-295 CNS and with RXF 393 renal was over 100 µM throughout.
Regarding `O=C(Cc1nc2ccccc2c(=O)n1-c1c(Cl)cccc1Cl)c1ccncc1`, the TGI with ACHN renal was 42.4 µM; in the test on HOP-62 NSCLC, 47.9 µM; with TK-10 renal, over 10 µM; with OVCAR-4 ovarian, 80.7 µM; with U251 CNS it was over 100 µM; with SK-MEL-28 melanoma, 43.6 µM. Also, the TGI with HL-60(TB) leukemia is 30.6 µM; in the test with M14 melanoma, over 100 µM; with SF-295 CNS, 36.5 µM; in the test on RXF 393 renal, 65.7 µM.
Turning to `CCCCSN1C(=O)c2ccccc2C1=S`, the TGI in the test with ACHN renal, with HOP-62 NSCLC, in the test with TK-10 renal, in the test with OVCAR-4 ovarian, in the test with U251 CNS and in the test on SK-MEL-28 melanoma was over 100 µM each time. Besides, the TGI in the test with HL-60(TB) leukemia is 51.2 µM; with M14 melanoma, over 100 µM; with SF-295 CNS, over 100 µM; in the test with RXF 393 renal, over 100 µM.
Consider `CN(Cc1cnc(N)nc1N)c1ccc(C(=O)O)cc1`, for which the GI50 in the test on ACHN renal, in the test with HOP-62 NSCLC, with TK-10 renal, in the test with OVCAR-4 ovarian, in the test with U251 CNS and in the test with SK-MEL-28 melanoma was over 100 µM each time. The GI50 in the test on HL-60(TB) leukemia, in the test with M14 melanoma, in the test with SF-295 CNS and in the test on RXF 393 renal was over 100 µM in each case. Moreover, the TGI in the test with ACHN renal, in the test on HOP-62 NSCLC, in the test with TK-10 renal, in the test with OVCAR-4 ovarian, in the test with U251 CNS and in the test with SK-MEL-28 melanoma was over 100 µM throughout. In addition, the TGI in the test with HL-60(TB) leukemia, with M14 melanoma, in the test on SF-295 CNS and with RXF 393 renal was over 100 µM throughout.
In the case of `COc1cc(NS(C)(=O)=O)ccc1Nc1c2ccccc2nc2c(C)cccc12`, the GI50 in the test on ACHN renal was 0.0427 µM and 0.0464 µM; in the test with HOP-62 NSCLC it was 0.104 µM and 0.117 µM; in the test on TK-10 renal, 0.476 µM and 0.16 µM; in the test with OVCAR-4 ovarian, 1.86 µM and 2.6 µM; in the test with U251 CNS, 0.106 µM and 0.0963 µM; in the test on SK-MEL-28 melanoma, 1.1 µM and 1.33 µM. Moreover, the GI50 was 0.0403 µM and 0.046 µM in the test with HL-60(TB) leukemia; 0.198 µM and 0.129 µM in the test on M14 melanoma; 0.0399 µM and 0.0874 µM with SF-295 CNS; 0.258 µM and 0.326 µM in the test with RXF 393 renal. Moreover, the TGI in the test with ACHN renal is 1.28 µM and 1.57 µM; with HOP-62 NSCLC it was 1.37 µM and 1.34 µM; in the test on TK-10 renal, 2.94 µM and 1.38 µM; with OVCAR-4 ovarian, 9.74 µM and 16.7 µM; in the test on U251 CNS it was 1.15 µM and 0.868 µM; in the test on SK-MEL-28 melanoma it was 7.68 µM and 13.7 µM. The TGI is 0.889 µM and 0.669 µM in the test with HL-60(TB) leukemia; 13.9 µM and 11.1 µM in the test with M14 melanoma; 0.386 µM and 3.46 µM in the test on SF-295 CNS; 1.72 µM and 3.36 µM in the test on RXF 393 renal.
Take `NC(N)=NS(=O)(=O)c1ccc(Nc2c3ccccc3nc3c(C(=O)N4CCN(CCO)CC4)cccc23)cc1`: the TGI with ACHN renal, with HOP-62 NSCLC, in the test with TK-10 renal, in the test with OVCAR-4 ovarian, in the test on U251 CNS and in the test with SK-MEL-28 melanoma was over 100 µM in each case. In addition, the TGI in the test on HL-60(TB) leukemia, in the test with M14 melanoma, with SF-295 CNS and in the test with RXF 393 renal was over 100 µM in each case.
For `COc1cccc(C(=O)Nc2ccc(CN3CCc4nc5cc(OC)c(OC)cc5cc43)cc2)c1`, the GI50 in the test with ACHN renal is 3.08 µM; in the test on HOP-62 NSCLC it was 13.5 µM; with TK-10 renal, 3.78 µM; with OVCAR-4 ovarian, 3.32 µM; in the test on U251 CNS, 3.17 µM; in the test on SK-MEL-28 melanoma, 7.15 µM. Besides, the GI50 in the test with HL-60(TB) leukemia is 4.92 µM; in the test with M14 melanoma it was 3.76 µM; with SF-295 CNS, 5.72 µM; in the test with RXF 393 renal, 2.74 µM. Moreover, the TGI with ACHN renal was over 100 µM; in the test with HOP-62 NSCLC it was 37.8 µM; in the test on TK-10 renal, 21.4 µM; in the test with OVCAR-4 ovarian, over 100 µM; in the test on U251 CNS it was 12.7 µM; in the test on SK-MEL-28 melanoma it was over 100 µM. Besides, the TGI worked out at 27.7 µM in the test with HL-60(TB) leukemia, 16.4 µM with M14 melanoma, 28.1 µM in the test with SF-295 CNS and 15.3 µM in the test with RXF 393 renal.
Consider `CN(CCC#N)c1ccc(/C=C(\C#N)c2cccc(C(F)(F)F)c2)cc1`, for which the GI50 in the test with ACHN renal was 4.13 µM; with HOP-62 NSCLC, 6.2 µM; in the test on TK-10 renal, 3.12 µM; with OVCAR-4 ovarian, 4.71 µM; in the test with U251 CNS it was 3.75 µM; in the test on SK-MEL-28 melanoma it was 6.4 µM. Moreover, the GI50 was 3 µM with HL-60(TB) leukemia, 3.51 µM in the test with M14 melanoma, 3.87 µM in the test with SF-295 CNS and 3.75 µM in the test with RXF 393 renal. The TGI in the test with ACHN renal, in the test with HOP-62 NSCLC, in the test with TK-10 renal, with OVCAR-4 ovarian, in the test on U251 CNS and in the test on SK-MEL-28 melanoma was over 100 µM each time. In addition, the TGI with HL-60(TB) leukemia, in the test on M14 melanoma, in the test with SF-295 CNS and in the test on RXF 393 renal was over 100 µM throughout.
Consider `CC1=CC[C@@H]2C(C)(C)C(=O)CC[C@@]2(C)[C@@H]1COc1ccc2ccc(=O)oc2c1`, for which the GI50 with ACHN renal is 15.3 µM; with HOP-62 NSCLC it was 22.3 µM; in the test with TK-10 renal it was 45.3 µM; with OVCAR-4 ovarian it was 5.53 µM; in the test on U251 CNS, 27.6 µM; in the test on SK-MEL-28 melanoma, 16.7 µM. For the same compound, the GI50 in the test with HL-60(TB) leukemia was 7.3 µM; in the test with M14 melanoma it was 12.9 µM; in the test on SF-295 CNS, 15.5 µM; in the test with RXF 393 renal, 62 µM. The TGI in the test on ACHN renal was 79.9 µM; in the test on HOP-62 NSCLC it was 85.1 µM; in the test on TK-10 renal, over 100 µM; in the test with OVCAR-4 ovarian, 44.8 µM; in the test on U251 CNS it was over 100 µM; with SK-MEL-28 melanoma, 45.2 µM. Further, the TGI in the test with HL-60(TB) leukemia is 29.2 µM; in the test with M14 melanoma, 32.7 µM; in the test with SF-295 CNS, 44.3 µM; with RXF 393 renal, over 100 µM.

What is called TGI is the concentration giving total growth inhibition. A higher TGI goes with less potent growth arrest. One may read the GI50 as the concentration at which growth is held to half of that of the control.

The record behind these values is PubChem BioAssay (NCI).
